Data on 4 compounds can be found in US5866576A, “Epoxide-containing compounds” (Cell Therapeutics, Inc., priority 1997, dated 1999).

Assay [1] deals with thymocytes. Put plainly: murine thymocyte proliferation assay co-stimulated by ConA and IL-2 (FIGS. 7A-7E). Format: cell-based, Balb/C mice. The following applies: Mus musculus. The source says: This example illustrates dose response curves used to generate 50% inhibition concentrations (IC50) for inventive compounds nos. 1410, 1439, 1541, 1553, 1553S, 1560, 1565, 2548R, 2548S and 2562 in a murine thymocyte proliferation assay, co-stimulated by Concanavalin A (ConA) and interleukin-2 alpha (IL-2). ConA, used to activate the T-cell receptor (TCR), along with IL-2 co-stimulation, induces T-cell proliferation and differentiation. Thymuses, obtained from normal, female Balb/C mice, were dissociated and plated into 96-well plates at a density of 2×10^5 cells/well. ConA (0.25 mg/ml) and IL-2 (15 U/ml) were added to the wells. The cells were incubated for 4 days at 37° C. On day 4, the cells were pulsed with tritiated thymidine and incubated for an additional 4 hours. The amount of tritiated thymidine incorporated by the harvested cells was determined in a liquid scintillation counter. Doses of inventive compounds (shown in FIGS. 7A-7E) were added two hours prior to ConA and IL-2 activation. Background counts were less than 200 cpm. Results obtained, illustrate the ability of the inventive compounds to inhibit thymocyte proliferation and activation. In FIG. 7A, inventive compounds nos. […] FIG. 7B presents additional data for compound no. 1410 and 1553S in this assay. […] FIG. 7C reports assay results for inventive compounds nos. 1439, 1541, 1560 and 1565. […] FIGS. 7D and 7E illustrate assay results for inventive compounds nos. 1541, 1553, 1560 and 1565 (FIG. 7D) and 2562, […] (FIG. 7E). As is true of other inventive compounds tested, all these compounds represented in FIGS. 7D and 7E inhibit thymocyte proliferation. […] 1541, 1553, 1560, 1565, 2562, 2548R and 2548S, respectively.

Another assay concerns murine splenocytes. Put plainly: murine splenocyte proliferation co-stimulated by anti-mu and IL-4 (FIG. 11). The note with it: Mus musculus, anti-mu / IL-4 12.5 ng/ml. Format: cell-based. The method, then: This example illustrates inhibitive effects of compounds nos. 1439, 1553S, 1560 and 1565 on murine splenocyte proliferation co-stimulated by anti-mu ([…]) and interleukin-4 (IL-4, 12.5 ng/ml). This in vitro assay, described above, is indicative of immune-suppressive/autoimmune treatment assay emphasizing humoral or B cell immune response. This assays are a predictive model for treatment or prevention of autoimmune diseases, such as diabetes, lupus, arthritis, and the like. The assay measures immunosuppressive activity of a drug at the B cell level. Spleens from adult mice contain immature B cells that express surface IgM. Cross-linking the surface IgM with an anti-mu antibody results in B cell proliferation. Additionally, this activation results in an increased expression of interleukin-4 receptors(IL-4R) on the surface of such cells. IL-4 acts as a growth factor for B cells and will increase the amount of proliferation induced by anti-mu.
A mixture of anti-mu and murine IL-4 is added to murine splenocytes to cause their proliferation. Mice spleens are obtained from adult mice and a single cell suspension is prepared in RPMI 1640 medium supplemented with 10% FCS. Cells (200,000) are plated into flat-bottomed wells and pre-incubated for 1-2 hours with various concentrations of inventive compound or PBS if it is a control. A mixture of anti-mu and murine is added to the wells at a final concentration of 5 μg/ml anti-mu and 12.5 ng/ml IL-4 and plates are incubated for three days. Proliferation is determined on the third day with a pulse of tritiated thymidine. The IC50 concentration of a particular drug is the concentration of drug that results in a 50% inhibition of the proliferation obtained from the positive control.

The next assay relates to lymph node cells. Description: ovalbumin-induced proliferation in murine lymph cells (FIG. 13). The following applies: Mus musculus, OVA 200 μg/ml. It counts as cell-based, Balb/C mice. The source says: This example illustrates effects of the inventive compounds on ovalbumin-induced proliferation in murine lymph cells. Lymphnode cells contain a mixture of lymphoid cells: T-cells, B-cells and macrophages. Although proliferating cells in this assay are T-cells, the response obtained depends on type of antigen-presenting cell (e.g., macrophages) as well as elaboration of various immunoregulatory cytokines. Thus, this assay serves as a good model for T-cell mediated responses and as a valuable screening tool in identifying compounds useful in immunosuppressive therapeutic applications.
Murine T-cells proliferate in vitro in response to a soluble protein antigen if first primed with a corresponding antigen in vivo. This in vivo priming usually involves emulsifying the antigen in complete Freunds adjuvant and injecting this preparation into an appropriate site on a mouse. In this assay the antigen employed was chicken ovalbumin(OVA). Following emulsification in Freund's complete adjuvant, 50 μg of OVA were injected into both hind footpads of adult Balb/C mice. Fourteen days later the draining lymph nodes(popliteal) were removed and a single cell suspension was prepared in RPMI-1640 (10%FCS) medium. Two hundred thousand lymph node cells are then plated into wells of flat-bottom 96-well plates. Inventive compouds nos. 1410, 1553 (racemic), 1553(S), 1560 and 1565 were added to appropriate wells at various concentrations. OVA, at a final concentration of 200 μg/ml, was added to appropriate wells. Positive and negative controls were established on each plate, all assay variables being set up in quadruplicate.
The plates were incubated in a humidified, 5% CO2 incubator for 5 days. On the fifth day, 1 μCi of tritiated thymidine was added to each well and the plates were incubated for an additional 4 hours. The plates were harvested and the incorporation of 3H-TdR was determined in a liquid scintillation counter. The CPM data was then used to calculate experimental IC50 values for the compounds tested. Again, IC50 is defined as that concentration of compound resulting in 50% inhibition of 3H-TdR incorporation of the positive control.

The test system of assay [2] is normal human bone marrow stromal cells (MSC). Description: human bone marrow stromal cell (MSC) proliferation in response to PDGF BB and IL-1α. Format: cell-based. The note with it: Table III, PDGF BB 50 ng/ml and IL-1α 10 ng/ml. The method, then:
This example illustrates the effects of inventive compounds nos. 1114, 1413, 1560, 1565, 1594, 2518, 2548R, 2548S and 3503 as effective inhibitors of normal human bone marrow stromal cells (MSC) proliferation in response to Platelet Derived Growth Factor BB (PDGF B) and IL-1α (50 and 10 ng/ml, respectively).
MSC were obtained and malintained in exponential growth, released from a growth plate with trypsin and plated into 96 well tissue culture plates in the presence of Fibroblast Growth Factor (FGFβ) for 48 hours. Growth media were removed and the cells were washed once with serum free media. The cells were then incubated 20-24 hours in serum free media.
After incubation, inventive compounds were added to the cells at the appropriate concentration and then the cells again incubated for 1 hour. PDGF B and IL-1α were added to the cells along with 3H-thymidine and the cells again incubated for an additional 24 hours.
After 24 hours of incubation, the cells were then harvested to assess incorporation of ^3 H-thymidine into DNA (proliferation). From each harvested cell culture, an IC-50 for each inventive compound tested was determined. Therefore, a lower reported IC-50 value is indicatilve of greater activity of the invention compounds in inhibiting MSC proliferation. Table III illustrates IC-50 values (in μM) for invention compounds inhibiting MSC proliferation at very low concentrations of compound.

In assay [3] the test system is PBMC (peripheral blood mononuclear cells). Put plainly: two-way mixed lymphocyte reaction, PBMC (FIG. 1). It counts as cell-based. The note with it: for potency in mixed lymphocyte reaction compared with PTX: PTX not shown on graph. The source says:
This example illustrates the effects of inventive compounds nos. 1605, 1808 and 1906 as immune modulators in a mixed lymphocyte reaction. […] 1605, 1808 and 1906.

In the next assay the test system is Ramos B-cell tumor line. Description: B-cell proliferation, Ramos line stimulated with anti-mu or PMA (FIG. 3). It counts as cell-based, human. The following applies: 250 μM, anti-mu or PMA (5 nM). The method, then: A Ramos […] tumor line was treated with 250 μM 1808 or 1605 for one hour prior to stimulation of proliferation with anti-mu antibody or phorbol myristic acid (PMA, 5 nM). One day later, proliferation was measured with tritiated thymidine.
This example illustrates a comparison of inventive compounds nos. 1605 and 1808 for inhibition of B-cell proliferation. A Ramos B-cell tumor line was treated with 250 μM 1808 or 1605 for one hour prior to stimulation of proliferation with anti-mu antibody or PMA (5 nM). One day later, proliferation was measured with tritiated thymidine.

A further assay has as its system human stromal cells. Put plainly: PDGF-induced proliferation of human stromal cells (FIG. 4). Format: cell-based. The following applies: PDGF-BB 50 ng/ml. The method, then: Human stromal cells were starved in serum-free media for 24 hours and then stimulated with 50 ng/ml of PDGF-BB. The drugs were added at various indicated concentrations one hour prior to PDGF stimulation. Tritiated thymidine was added for 24 hrs at the time of PDGF stimulation to measure cellular proliferation. Background counts were approximately 5% of control levels.
This example illustrates a comparison of inventive compounds nos. 1605, 1808 and 1906 on PDGF-induced (platelet derived growth factor) proliferation of human stromal cells. Human stromal cells were starved in serum-free media for 24 hours and then stimulated with 50 ng/ml of PDGF-BB. The drugs were added at various indicated concentrations one hour prior to PDGF stimulation. Tritiated thymidine was added for 24 hours at the time of PDGF stimulation to measure cellular proliferation. Background counts were approximately 5% of control levels.

Assay [4] concerns U937 cells; human umbilical vein endothelial cells (HUVEC). Description: adhesion of U937 cells to TNF-α activated HUVEC (FIG. 5). It counts as cell-based. The note with it: TNF-α 20 ng/ml, 12 hours. The method, then:
HUVEC cells were activated with 20 ng/ml of TNF for 12 hrs. Drug was added to each culture (except for controls) one hour prior to adding TNF. U937 cells, preloaded with the fluorescent dye BCECF, were added to each culture well and then washed. Cell adhesion was determined on a fluorescence plate reader, showing a decrease in cell adhesion caused by all three drugs in a dose dependent fashion.
This example illustrates a comparison of the effects of inventive compounds nos. 1605, 1808 and 1906 to inhibit adhesion of U937 cells to activated human umbilical vein endothelial cells (HUVEC). HUVEC cells (4000/ well, seeded 72 hours in advance) were activated with 20 ng/ml of TNF-α for 12 hours. Drug was added to the HUVEC (except for controls) one hour prior to adding TNF-α. U937 cells, preloaded with the fluorescent dye BCECF, were added to each culture well and then washed twice with PBS. Cell adhesion was determined by measuring the fluorescence of adhering U937 cells on a fluorescence plate reader.

In assay [5] the test system is vascular cell adhesion molecule-1 (VCAM) in human umbilical vein endothelial cells (HUVEC). Put plainly: cell surface expression of VCAM in TNF-α stimulated HUVEC, flow cytometry (FIG. 6). The following applies: TNF-α 20 ng/ml, 20 hrs. It counts as cell-based. The method, then: The HUVEC cells were stimulated with 20 ng/ml TNF-α for 20 hrs and then stained for immunofluorescence using a monoclonal antibody recognizing VCAM, followed by a goat anti-mouse antibody conjugated to phycoerythrin. The cells were analyzed for antibody binding using flow cytometry.
This example illustrates the effects of inventive compounds nos. 1605, 1808 and 1906 to inhibit cell surface expression of vascular cell adhesion molecule-1 (VCAM) in human umbilical vein endothelial cells (HUVEC). The HUVEC cells were stimulated with 20 ng/ml TNF-α for 20 hrs and then stained for immunofluorescence using a monoclonal antibody recognizing VCAM, followed by a goat anti-mouse antibody conjugated to phycoerythrin. The cells were analyzed for antibody binding using flow cytometry.

Assay [6] concerns thymocytes. Description: thymocyte proliferation co-stimulated with Con A and/or IL-1α (FIG. 2). It counts as cell-based, Balb/C mice. The note with it: three dose levels. The method, then: The thymocytes were obtained from normal female Balb/C mice and stimulated with Concanavalin A (Con A) and/or interleukin-1 alpha (L-1α). Drugs were added to the cell cultures two hours before activation with Con A and/or IL-1α.
This example illustrates a comparison of three dose levels of inventive compounds nos. 1808 and 1906 and no drug control to inhibit thymocyte proliferation. The thymocytes were obtained from normal female Balb/C mice and co-stimulated with Concanavalin A (Con A) and/or IL-1α (interleukin-1 alpha). The thymuses were dissociated and plated into 96-well plates at a density of 2×10^5 cells/well. Dilutions of Con A and/or IL-1α were added to the wells and the cells were incubated for 4 days at 37° C. Drugs were added to the cell cultures two hours before activation with Con A and/or IL-1α. On day 4, the cells were pulsed with tritiated thymidine and allowed to incubate an additional 4 hrs. The cells were harvested and counted.

One may read the IC50 as the point on the concentration scale where inhibition reaches its midpoint. A high value points to weaker potency. Regarding `Cn1cnc2c1c(=O)n(CCCCCC[C@H]1CO1)c(=O)n2C` [Compound 1553S, 1-(7(5)-7,8-Oxidooctyl)-3,7-dimethylxanthine], the IC50 was 46 µM in the assay on thymocytes [1] (FIG. 7B), 50 µM with murine splenocytes and 43 µM with lymph node cells.
`Cn1cnc2c1c(=O)n(CCCCCCCCC1CO1)c(=O)n2C` (centres unmarked) [Compound 1565, 1-(9,10-Oxidodecyl)-3,7-dimethylxanthine]: the IC50 in [2] is 17 µM; in the assay with thymocytes [1] (FIG. 7C), 32 µM; in the assay on thymocytes [1] (FIGS. 7D and 7E), 30 µM; in the assay with murine splenocytes it was 40 µM; in the assay with lymph node cells, 38 µM.
In the case of `O=C1CCCC(=O)N1CCCCC1CO1` (centres unmarked) [Compound 1605, N-(5,6-Oxidohexyl) glutarimide], in [3], the “activity in mixed lymphocyte reaction (immune modulation)” value is “demonstrated activity” and the “potency in mixed lymphocyte reaction compared with PTX” value is “more potent than PTX”. Also, in the assay with Ramos B-cell tumor line, the “inhibition of B-cell proliferation” value is “inhibited proliferation”. In addition, in the assay with human stromal cells, the “inhibition of PDGF-induced proliferation” value was “inhibited PDGF-induced stimulation in a dose response fashion”. For the same compound, in assay [4], the “inhibition of U937 cell adhesion to HUVEC” value was “decrease in cell adhesion induced by TNF-α in a dose dependent fashion”. The “mean fluorescence (VCAM surface expression)” value in assay [5] is recorded as “Mean fluorescence levels were decreased”.
As for `Cc1cn(C)c(=O)n(CCCCC2CO2)c1=O` (centres unmarked) [Compound 1906, 3-(5,6-Oxidohexyl)-1-methylthymine], in assay [3], the “activity in mixed lymphocyte reaction (immune modulation)” value is “demonstrated activity” and the “potency in mixed lymphocyte reaction compared with PTX” value was “more potent than PTX”. In addition, the “inhibition of thymocyte proliferation” value in the assay with thymocytes [6] is on record as “inhibited thymocyte proliferation is a dose-dependent fashion”. Moreover, the “inhibition of PDGF-induced proliferation” value in the assay with human stromal cells was “inhibited PDGF-induced stimulation in a dose response fashion”. In addition, the “inhibition of U937 cell adhesion to HUVEC” value in [4] is “decrease in cell adhesion induced by TNF-α in a dose dependent fashion”. Further, the “mean fluorescence (VCAM surface expression)” value in assay [5] was “Mean fluorescence levels were decreased”.
